“Also recorded” adds a separate entry of the source.
Legend:
[1] = tested on: CRM1-mediated nuclear export; experiment: Nuclear export block: subcellular localization of GFP-HDHB and FLAG-HDHB with or without LMB; assay type: cell-based, human; conditions: asynchronous, G1 and S phase U2OS cells; 10 ng/ml LMB with 10 μM cycloheximide, 3 h
Protocol: In experiments to block nuclear protein export, cells were cultured for 3 h in DMEM containing 10 ng/ml of leptomycin B (LMB) (gift from Dr. M. Yoshida) and 10 μM cycloheximide (Calbiochem, San Diego, Calif.) to prevent new protein synthesis. Cells plated on glass coverslips were microinjected as described (Herbig et al., 1999) except that plasmid DNA rather than protein was injected.
To assess whether the putative NES in HDHB was functional, we mutated Val/Leu and Leu/Leu of the NES motif to alanine to create NES mutants 1 and 2 (FIG. 6A). GFP-HDHB and GFP-βGal-PSLD harboring these NES mutations were transiently expressed in either asynchronous or synchronized U2OS cells.

[2] = tested on: U2OS cells transiently expressing GFP-HDHB; experiment: DNA damage response assay: GFP-HDHB nuclear focus formation; assay type: cell-based, human; conditions: 20 μM etoposide, 10 μM camptothecin or 1 μM mitomycin C, 20 h, DMSO control, Triton X-100 extraction
Protocol: U2OS cells (80-90% confluent) were transfected with pGFP-HDHB according to the manufacturer's protocol (Lipofectamine 2000, Invitrogen). […] After 20 h, cells were extracted with Triton X-100 buffer and then fixed for immunofluorescence as described above. Distinctive GFP-HDHB nuclear foci were counted in more than 100 cells in each independent assay.
Moreover, DNA damage induces nuclear foci that are thought to contain damage-sensing and -processing proteins (Nelms et al., Science, (1998) 280, 590-592; van den Bosch et al. EMBO Rep., (2003), 4, 844-849).

SMILES	subcellular localization of GFP-HDHB and FLAG-HDHB fusion proteins in the presence of LMB [1]	number of large GFP-HDHB nuclear foci per cell compared to the control [2]
CCC(=C/[C@H](C)C/C=C/C(C)=C/[C@@H](C)C(=O)[C@@H](C)[C@H](O)[C@@H](C)C/C(C)=C/C(=O)O)/C=C/[C@@H]1OC(=O)C=C[C@@H]1C [LMB, leptomycin B]	both fusion proteins accumulated in the nucleus independently of the cell cycle	–
CO[C@@]12[C@H](COC(N)=O)C3=C(C(=O)C(C)=C(N)C3=O)N1C[C@@H]1N[C@@H]12 [Mitomycin C, mitomycin C]	–	little effect
CC[C@@]1(O)C(=O)OCc2c1cc1n(c2=O)Cc2cc3ccccc3nc2-1 [camptothecin]	–	more than doubled; also recorded: induced many more HDHB nuclear foci

Reference: patent US20070212707A1, “CELL CYCLE MARKERS” (GE HEALTHCARE UK LIMITED, priority 2004, published 2007)
